One test addresses T1, GAβ-dependent amyloid fibril formation (Human Aβ1-40 + GM1-containing liposome) (Homo sapiens, UniProt P05067).
T1 construct: Human Aβ1-40 (cat. #4307-v, prepared by Peptide Institute); purchased Peptide Institute 4307-v
Nature of the test: Thioflavin T (ThT) assay of GAβ-dependent amyloid fibril formation (Aβ1-40 with GM1-containing liposome). The class given is biochemical. Conditions: @5 μM; read-out: ThT Inhibitory activity (% inhibition). The procedure:
<3. Evaluation of the Compounds Based on the Inhibitory Activity Against Amyloid Fibril Formation in Thioflabin T (ThT) Assay>
Inhibitory activity against GAβ-dependent amyloid fibril formation of the above compounds 1 to 133 and 142 to 267 were evaluated in ThT assay.
(1) Preparation of Aβ Solution
Human Aβ1-40 (cat. #4307-v, prepared by Peptide Institute) was dissolved in a 0.02% ammonia solution (400 μM), and the mixture was treated in an ultracentrifuge (S110AT rotor, Hitachi) at 100,000 rpm for 3 hours. Approximately two-thirds of the upper layer of the supernatant was recovered and protein concentration was measured. The Aβ solution was aliquoted and stored at −80° C. until use, was melted immediately before use, and was diluted to 75 μM using phosphate buffer (PBS: cat. #10010, manufactured by Life Technologies).
(2) Preparation of GM1-Containing Liposome
Using a mixed solution of chloroform/methanol (1:1) as a solvent, a mixed solution of 100 mM each of cholesterol and sphingomyelin (both manufactured by Sigma-Aldrich) was prepared. To this mixed solution, GM 1 (cat. #1061, manufactured by Matreya Co.) was dissolved to make a solution of 50 mM concentration. This lipid mixed solution was aliquoted into glass test tubes and stored at −20° C. until use, was melted before use, was mixed with chloroform/methanol mixture (1:1) and mixed, and then the solvent was removed by applying nitrogen gas to the suspension. The dried lipid mixture was resuspended in PBS to be a GM1 concentration of 2.5 mM, and frozen and thawed 5 times with liquid nitrogen. The lipid suspension was centrifuged at 15,000 rpm for 10 minutes and the precipitate was resuspended in PBS to be a GM1 concentration of 2.5 mM. Using an ultrasonic crusher (XL-2000, MISONIX Co., Ltd.) equipped with a microchip, ultrasonic treatment was repeated on ice for 10 seconds until the suspension became transparent, and GM1-containing liposome was prepared. Immediately prior to use, PBS was added and diluted to a GM 1 concentration of 75 μM.
(3) Preparation of Compound Solution
Compounds 1 to 133 and 142 to 267 were prepared as 10 mM and 2 mM solution in DMSO, respectively. And each solution was diluted to 75 μM or 15 μM with PBS immediately prior to use.
(4) GAβ-Dependent Amyloid Fibril Formation
To a 96-well microplate, 5 μl each of the 75 μM Aβ solution prepared above (1), the compound solution prepared in (3) or 0.75% DMSO was mixed and incubated at room temperature for 10 minutes. Then, 5 μl each of 750 μM GM1-containing liposome prepared in (2) was added to each well and incubated at 37° C. for 18 hours.
ThT (manufactured by Sigma-Aldrich) was adjusted to 5 μM using 50 mM glycine-NaOH buffer (pH 8.5). Immediately before measurement, 10 μl from each well of (4) was transferred to a 96-well black plate. 50 μl of 5 μM ThT solution was added from each injector to each well using a multi-plate reader (ARVO-HTS, manufactured by Perkin Elmer), and then the optimal fluorescence of ThT bound to amyloid fiber (excitation wavelength 430 nm, fluorescence wavelength 490 nm) was measured.
The fluorescence intensity of ThT indicates the degree of amyloid fibrils formation. By calculating the ratio of the ThT fluorescence intensity between addition of the compound and without addition of the compound, the inhibition rate against amyloid fibril formation by the compound was calculated.
T1 sequence (P05067 672-711 limits assumed): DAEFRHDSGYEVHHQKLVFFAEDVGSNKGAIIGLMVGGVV
Consider `O=C(N[C@@H](CO)c1nc(-c2ccc(C(F)(F)F)cc2)no1)c1ccc(Cl)cc1` [Compound 129, (S)-4-chloro-N-(2-hydroxy-1-(3-(4-(tri-fluoromethyl)phenyl)-1,2,4-oxadiazol-5-yl)ethyl)benzamide], for which the inhibition at 5 µM was 68%.

Still in this test, the particulars now being: @25 μM; read-out: ThT Inhibitory activity (% inhibition).
Consider `COCCCNC(=O)c1ccc(-c2noc([C@H](CO)NC(=O)c3ccc(F)cc3)n2)cc1` [Compound 147, 4-{5-[(1S)-1-[(4-fluorophenyl) formamido]-2-hydroxyethyl]-1,2,4-oxadiazol-3-yl}-N-(3-methoxypropyl) benzamide], for which the inhibition at 25 µM came to 53%.
For `O=C(N[C@@H](CO)c1nc(-c2ccc(C(F)(F)F)cc2)no1)c1ccc(Cl)cc1` [Compound 129, (S)-4-chloro-N-(2-hydroxy-1-(3-(4-(tri-fluoromethyl)phenyl)-1,2,4-oxadiazol-5-yl)ethyl)benzamide], the inhibition at 25 µM turned out to be 86%.

The same test, now with this note: final concentration of the compound 25 μM; ratio of ThT fluorescence intensity with/without compound; 37° C. for 18 hours; read-out: inhibition rate against amyloid fibril formation (inhibitory activity on a scale of A to C).
With `O=C(N[C@@H](CO)c1nc(-c2ccc(C(F)(F)F)cc2)no1)c1ccc(Cl)cc1` [Compound 129, (S)-4-chloro-N-(2-hydroxy-1-(3-(4-(tri-fluoromethyl)phenyl)-1,2,4-oxadiazol-5-yl)ethyl)benzamide], the inhibition at 25 µM is greater than 80%.

Still in this test, the particulars now being: inhibition rate against amyloid fibril formation, final concentration of the compound 25 μM; read-out: Inhibitory activity ABC evaluation.
As to `O=C(N[C@@H](CO)c1nc(-c2n[nH]c3ccccc23)no1)c1ccc(F)cc1` [Compound 265, 4-fluoro-N-[(1S)-2-hydroxy-1-[3-(1H-indazol-3-yl)-1,2,4-oxadiazol-5-yl]ethyl] benzamide], the inhibition at 25 µM was 40 to 80%.
On to `O=C(N[C@@H](CO)c1nc(-c2ccc(C(F)(F)F)cc2)no1)c1ccc(N2CCOCC2)cc1` [Compound 200, N-[(1S)-2-hydroxy-1-{3-[4-(trifluoromethyl)phenyl]-1,2,4-oxadiazol-5-yl}ethyl]-4-(morpholin-4-yl) benzamide], for which the inhibition at 25 µM lay within 40 to 80%.
On the same count and under the same terms, the value for `O=C1CC(c2nnn(-c3ccc(OC(F)(F)F)cc3)n2)CN1c1ccc(Cl)cc1` (stereo not drawn) [Compound 122, 1-(4-chlorophenyl)-4-{2-[4-(trifluoromethoxy)phenyl]-2H-tetrazol-5-yl}pyrrolidin-2-one] was less than 40%; that for `CCCN(Cc1cccc(Cl)c1)C(=O)CCc1nc(-c2ccc(OC)cc2)no1` [Compound 9, N-(3-chlorobenzyl)-3-{3-(4-methoxyphenyl)-1,2,4-oxadiazol-5-yl}-N-propylpropanamide] was 40 to 80%; that for `COCCCNC(=O)c1ccc(-c2noc([C@H](CO)NC(=O)c3ccc(F)cc3)n2)cc1` [Compound 147, 4-{5-[(1S)-1-[(4-fluorophenyl) formamido]-2-hydroxyethyl]-1,2,4-oxadiazol-3-yl}-N-(3-methoxypropyl) benzamide] was 40 to 80%.
In the case of `COCCCNC(=O)c1ccc(-c2noc([C@H](CO)NC(=O)c3ccccc3)n2)cc1` [Compound 148, 4-[5-[(1S)-2-hydroxy-1-(phenylformamido)ethyl]-1,2,4-oxa-diazol-3-yl)-N-(3-methoxypropyl) benzamide], the inhibition at 25 µM was 40 to 80%.
Consider `O=C(N[C@@H](CO)c1nc(-c2ccc(C(=O)C(F)(F)F)cc2)no1)c1ccc(F)cc1` [Compound 164, 4-fluoro-N-[(1S)-2-hydroxy-1-{3-[4-(2,2,2-trifluoroacetyl)phenyl]-1,2,4-oxadiazol-5-yl}ethyl] benzamide], for which the inhibition at 25 µM is greater than 80%.
Take `O=C(N[C@@H](CO)c1nc(-c2ccc3[nH]cc(F)c3c2)no1)c1ccc(F)cc1` [Compound 194, 4-fluoro-N-[(1S)-1-[3-(3-fluoro-1H-indol-5-yl)-1,2,4-oxadiazol-5-yl]-2-hydroxyethyl] benzamide]: the inhibition at 25 µM fell in the range of 40 to 80%.
On to `O=C(N[C@@H](CO)c1nc(-c2ccc(C(F)(F)F)s2)no1)c1ccc(F)cc1` [Compound 210, 4-fluoro-N-[(1S)-2-hydroxy-1-{3-[5-(trifluoromethyl)thiophen-2-yl]-1,2,4-oxadiazol-5-yl}ethyl] benzamide], for which the inhibition at 25 µM is greater than 80%.
On the same count and under the same terms, to `O=C1CC(c2nc(-c3ccc(Cl)cc3)no2)CN1c1ccc(Cl)cc1` (stereo not drawn) [Compound 59, 1-(4-chlorophenyl)-4-{3-(4-chlorophenyl)-1,2,4-oxadiazol-5-yl}pyrrolidin-2-one] belongs less than 40%; to `NC(=O)C[C@H](NC(=O)c1ccc(Cl)cc1)c1nc(-c2ccc(OC(F)(F)F)cc2)no1` [Compound 86, (S)-N-(3-amino-3-oxo-1-{3-[4-(trifluoromethoxy)phenyl]-1,2,4-oxadiazol-5-yl}propyl)-4-chlorobenzamide], less than 40%; to `O=C(N[C@@H](CO)c1nc(-c2cccc(C(F)(F)F)c2)no1)c1ccc(F)cc1` [Compound 176, 4-fluoro-N-[(1S)-2-hydroxy-1-{3-[3-(trifluoromethyl)phenyl]-1,2,4-oxadiazol-5-yl}ethyl] benzamide], greater than 80%.
With `O=C(CCc1nc(-c2ccc(OC(F)(F)F)cc2)no1)N1CCCc2ccccc21` [Compound 12, 1-{3,4-dihydroquinolin-1(2H)-yl}-3-[3-{4-(trifluoromethoxy)phenyl}-1,2,4-oxadiazol-5-yl]propan-1-one], the inhibition at 25 µM fell in the range of 40 to 80%.
`O=C(N[C@@H](CO)c1nc(-c2cc(Cl)sc2Cl)no1)c1ccc(F)cc1` [Compound 231, N-[(1S)-1-[3-(2,5-dichlorothiophen-3-yl)-1,2,4-oxadiazol-5-yl]-2-hydroxyethyl]-4-fluorobenzamide]: the inhibition at 25 µM lay within 40 to 80%.
Regarding `O=C(N[C@@H](CO)c1nc(-c2cccc(C(F)(F)F)c2)no1)c1cc2ccccc2[nH]1` [Compound 223, N-[(1S)-2-hydroxy-1-{3-[3-(trifluoromethyl)phenyl]-1,2,4-oxadiazol-5-yl}ethyl]-1H-indole-2-carboxamide], the inhibition at 25 µM was 40 to 80%.
Still for that read-out and setting: to `O=C(N[C@@H](CO)c1nc(-c2ccc(OCC(F)(F)F)cc2)no1)c1ccc(F)cc1` [Compound 216] belongs less than 40%; to `O=C1CC(c2nc(-c3ccc(OC(F)(F)F)cc3)no2)CN1Cc1ccc(Cl)cc1` (stereo not drawn) [Compound 64, 1-(4-chlorobenzyl)-4-{3-[4-(trifluoromethoxy)phenyl]-1,2,4-oxadiazol-5-yl}pyrrolidin-2-one], 40 to 80%.
For the compound `O=C(N[C@@H](CO)c1noc(-c2ccc(OC(F)(F)F)cc2)n1)c1ccc(Cl)cc1` [Compound 126, (R)-4-chloro-N-(2-hydroxy-1-(5-(4-(trifluoromethoxy)phenyl)-1,2,4-oxadiazol-3-yl)ethyl)benzamide], the inhibition at 25 µM fell in the range of 40 to 80%.
As for `O=C(N[C@H](CO)c1nc(-c2ccc(C(F)(F)F)cc2)no1)c1ccccc1` [Compound 213, N-[(1R)-2-hydroxy-1-{3-[4-(trifluoromethyl)phenyl]-1,2,4-oxadiazol-5-yl}ethyl]benzamide], the inhibition at 25 µM is less than 40%.
As to `COc1ccc2[nH]cc(-c3noc([C@H](CO)NC(=O)c4ccc(F)cc4)n3)c2c1` [Compound 261, 4-fluoro-N-[(1S)-2-hydroxy-1-[3-(5-methoxy-1H-indol-3-yl)-1,2,4-oxadiazol-5-yl]ethyl] benzamide], the inhibition at 25 µM was in the range of 40 to 80%.
Turning to `O=C(O)C[C@H](NC(=O)c1ccc(Cl)cc1)c1nc(-c2ccc(OC(F)(F)F)cc2)no1` [Compound 81, (S)-3-(4-chlorobenzamide)-3-{3-[4-(trifluoromethoxy)phenyl]-1,2,4-oxadiazol-5-yl}propanoic acid], the inhibition at 25 µM lay within 40 to 80%.
Turning to `O=C1CC(c2nc(-c3ccc(OC(F)(F)F)cc3)no2)CN1c1ccc(Cl)cc1F` (stereo not drawn) [Compound 28, 1-(4-chloro-2-fluorophenyl)-4-[3-{4-(trifluoromethoxy)phenyl}-1,2,4-oxadiazol-5-yl]pyrrolidin-2-one], the inhibition at 25 µM was in the range of 40 to 80%.
On to `O=C1CC(c2nc(-c3ccc(OC(F)(F)F)cc3)no2)CN1c1cncc(Cl)c1` (stereo not drawn) [Compound 51, 1-(5-chloropyridin-3-yl)-4-[3-{4-(trifluoro-methoxy)phenyl}-1,2,4-oxadiazol-5-yl]pyrrolidin-2-one], for which the inhibition at 25 µM is less than 40%.
For `N[C@H](Cc1c[nH]c2ccccc12)c1nnc(-c2ccc(OC(F)(F)F)cc2)o1` [Compound 114, (R)-2-(1H-indol-3-yl)-1-(5-(4-(trifluoro-methoxy)phenyl)-1,3,4-oxadiazol-2-yl) ethan-1-amine], the inhibition at 25 µM is greater than 80%.
In the case of `O=C(N[C@@H](CO)c1nc(-c2ccc(C(F)(F)F)cc2)no1)c1ccc(Cl)cc1` [Compound 129, (S)-4-chloro-N-(2-hydroxy-1-(3-(4-(tri-fluoromethyl)phenyl)-1,2,4-oxadiazol-5-yl)ethyl)benzamide], the inhibition at 25 µM is greater than 80%.

The test is the same for the next values; noted with them: read-out: Inhibitory activity ABC evaluation.
For `CCN(C)C(=O)Oc1ccc(-c2noc([C@H](CO)NC(=O)c3ccccc3)n2)cc1` [Compound 159], the inhibition at 25 µM is less than 40%.

These data come from US10538516B2, “Oxadiazole derivative and pharmaceutical containing same” (National Center for Geriatrics and Gerontology, priority 2015, dated 2020).
